Source: patent publication US11141410B2 (MERCK SHARP & DOHME CORP., priority 2015, dated 2021)

Columns and labels:
MRSA COL (MB5393) [1] = test: TarO Inhibitor/β-Lactam Synergy Assay (growth, OD600); format: cell-based; settings: Staphylococcus aureus, TarO inhibitor alone, >200 μM = 95% growth inhibition not achieved, 20 hours at 37° C., read-out: MITC95 TarO inhibitor alone, Bacteria: SA_MB5393
MRSA COL (MB5393) [2] = test: as above; format: cell-based, Staphylococcus aureus; settings: for MITC95 TarO inhibitor + 4 μg/mL IPM; Bacteria: SA_MB5393: in combination with 4 μg/mL imipenem (IPM); for MITC95 TarO inhibitor + 8 μg/mL DCX; Bacteria: SA_MB5393: in combination with 8 μg/mL dicloxacillin (DCX)
How it was run: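 TarO inhibitors titrated 2-fold from 200 μM (2% DMSO) against MRSA COL, 5×10^5 CFU in CAMHB, with β-lactam fixed at clinical breakpoint (imipenem 4 μg/ml or dicloxacillin 8 μg/ml). Incubated 20 h at 37 °C without shaking; relative growth read as OD600.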

SMILES | IC95 (MRSA COL (MB5393) [1]) | MITC95 TarO inhibitor + 4 μg/mL IPM; Bacteria: SA_MB5393 (MRSA COL (MB5393) [2]) | MITC95 TarO inhibitor + 8 μg/mL DCX; Bacteria: SA_MB5393 (MRSA COL (MB5393) [2])
C[C@H]1[C@@H](c2cc(F)c(F)c(F)c2)OC(=O)N1C(=O)CCc1cncc2ccccc12 [Example 78, (4S,5R)-3-(3-isoquinolin-4-ylpropanoyl)-4-methyl-5-(3,4,5-trifluorophenyl)-1,3-oxazolidin-2-one] | > 200 µM | 1.17 µM | –
Cc1cc(F)cc([C@H]2OC(=O)N(C(=O)CCc3cncc4ccccc34)[C@H]2C)c1 [Example 79, (4S,5R)-5-(3-fluoro-5-methylphenyl)-3-(3-isoquinolin-4-ylpropanoyl)-4-methyl-1,3-oxazolidin-2-one] | > 200 µM | 1.17 µM | 12.50 µM
C[C@H]1[C@@H](c2cccc(F)c2)OC(=O)N1C(=O)CCc1cncc2ccccc12 [Example 80, (4S,5R)-5-(3-fluorophenyl)-3-(3-isoquinolin-4-ylpropanoyl)-4-methyl-1,3-oxazolidin-2-one] | > 200 µM | 4.69 µM | –
COc1cccc([C@H]2OC(=O)N(C(=O)CCc3cccc4ccccc34)[C@H]2C)n1 [Example 81, (4S,5S)-5-(6-methoxypyridin-2-yl)-4-methyl-3-(3-naphthalen-1-ylpropanoyl)-1,3-oxazolidin-2-one] | > 200 µM | 0.75 µM | 100.00 µM
C[C@H]1[C@@H](c2ccc(F)c(F)c2)OC(=O)N1C(=O)CCc1cncc2ccccc12 [Example 82, (4S,5R)-5-(3,4-difluorophenyl)-3-(3-isoquinolin-4-ylpropanoyl)-4-methyl-1,3-oxazolidin-2-one] | > 200 µM | 9.38 µM | –
CC[C@H]1[C@@H](c2cc(C(F)(F)F)cc(C(F)(F)F)c2)OC(=O)N1C(=O)CCc1cncc2ccccc12 [Example 83, (4S,5R)-5-[3,5-bis(trifluoromethyl)phenyl]-4-ethyl-3-(3-isoquinolin-4-ylpropanoyl)-1,3-oxazolidin-2-one] | > 200 µM | 0.06 µM | 0.59 µM
C[C@H]1[C@@H](c2cccc(Br)n2)OC(=O)N1C(=O)CCc1cccc2ccccc12 [Example 84, (4S,5S)-5-(6-bromopyridin-2-yl)-4-methyl-3-(3-naphthalen-1-ylpropanoyl)-1,3-oxazolidin-2-one] | > 200 µM | 1.56 µM | 100 µM
O=C(CCc1cncc2ccccc12)N1C[C@H](c2cc(C(F)(F)F)cc(C(F)(F)F)c2)OC1=O [Example 85, (5S)-5-[3,5-bis(trifluoromethyl)phenyl]-3-(3-isoquinolin-4-ylpropanoyl)-1,3-oxazolidin-2-one] | > 200 µM | 0.55 µM | 25.00 µM
O=C(CCc1cncc2ccccc12)N1CC(c2cccc(F)c2F)OC1=O (stereo not drawn) [Example 86, 5-(2,3-difluorophenyl)-3-(3-isoquinolin-4-ylpropanoyl)-1,3-oxazolidin-2-one] | > 200 µM | 1.41 µM | 8.33 µM
COc1cccc([C@H]2OC(=O)N(C(=O)CCc3cncc4ccccc34)[C@H]2C)c1 [Example 87, (4S,5R)-3-(3-isoquinolin-4-ylpropanoyl)-5-(3-methoxyphenyl)-4-methyl-1,3-oxazolidin-2-one] | > 200 µM | 2.08 µM | 50 µM
C[C@H]1[C@@H](c2cc(Br)cc(C(F)(F)F)c2)OC(=O)N1C(=O)CCc1cncc2ccccc12 [Example 88, (4S,5R)-5-[3-bromo-5-(trifluoromethyl)phenyl]-3-(3-isoquinolin-4-ylpropanoyl)-4-methyl-1,3-oxazolidin-2-one] | > 200 µM | 1.30 µM | 6.25 µM
C[C@H]1[C@@H](c2cc(C(F)(F)F)ccn2)OC(=O)N1C(=O)CCc1cncc2ccccc12 [Example 89, (4S,5S)-3-(3-(isoquinolin-4-yl)propanoyl)-4-methyl-5-(4-(trifluoromethyl)pyridin-2-yl)oxazolidin-2-one] | > 200 µM | 6.25 µM | 75 µM
Cc1cccc(OCC(=O)N2C(=O)O[C@H](c3cccc(C(F)(F)F)c3)[C@@H]2C)c1C [Example 90, (4S,5R)-3-(2-(2,3-dimethylphenoxy)acetyl)-4-methyl-5-(3-(trifluoromethyl)-phenyl)oxazolidin-2-one] | > 200 µM | 0.39 µM | 12.50 µM
C[C@H]1[C@@H](c2cc(C(F)(F)F)cc(C(F)(F)F)c2)OC(=O)N1C(=O)COc1cccc2ccccc12 [Example 91, (4S,5R)-5-[3,5-bis(trifluoro-methyl)phenyl]-4-methyl-3-[(naphthalen-1-yloxy)acetyl]-1,3-oxazolidin-2-one] | > 200 µM | 0.76 µM | 4.69 µM
Cc1ccc2c(n1)N(CCC(=O)N1C(=O)O[C@H](c3cc(F)cc(C(F)(F)F)c3)[C@@H]1C)CCO2 [Example 92, (4S,5R)-5-(3-fluoro-5-(trifluoromethyl)phenyl)-4-methyl-3-(3-(6-methyl-2,3-dihydro-4H-pyrido[3,2-b][1,4]oxazin-4-yl)propanoyl)oxazolidin-2-one] | > 200 µM | 0.51 µM | 7.50 µM
COc1cc([C@H]2OC(=O)N(C(=O)NCc3cncc4cccnc34)C[C@H]2C)cc(C(F)(F)F)c1 [Example 94, (5R,6S)-6-[3-methoxy-5-(trifluoromethyl)phenyl]-5-methyl-N-(1,6-naphthyridin-8-ylmethyl)-2-oxo-1,3-oxazinane-3-carboxamide] | > 200 µM | 3.52 µM | 44 µM
C[C@@H]1NN(C(=O)NCc2cncc3ccccc23)C(=O)O[C@@H]1c1cc(F)cc(C(F)(F)F)c1 [Example 95] | > 200 µM | 5.21 µM | 4.17 µM
